Laboratory results reported in patent US20090325805A1, “Cationic surfactant based adjuvant systems for some herbicides that increase pH, herbicide solubility and performance” (priority 2004, published 2009).

Experiments:
Type in all cases: in vivo
[1] = tested on: Downy Brome (Bromus tectorum); test: Herbicide efficacy (percent control) on downy brome with differing spray adjuvants (Table 2); design: concentration or dose not given beside the values; details: for Downy Brome % Control 21 DAT: 21 days after treatment; for Downy Brome % Control 68 DAT: 68 days after treatment
Text: (§1) This effect has been seen with both wild oat (Avena fatua) Table 1 and downy brome (Bromus tectorum) Table 2. The increase in activity has been seen with different formulation of tallow amine cat-ionic surfactant and a pH increasing additive (Table 3). [table]

[2] = tested on: Downy Brome (Bromus tectorum); test: Sulfosulfuron efficacy (percent control) on downy brome with differing tallow amine adjuvant formulations (Table 3); design: concentration or dose not given beside the values; details: for Downy Brome % Control 17 DAT: 17 days after treatment; for Downy Brome % Control 87 DAT: 87 days after treatment
Text: as §1

[3] = tested on: Wild Oat (Avena fatua); test: Post-emergence herbicide efficacy (percent control) on wild oats with differing spray adjuvants; details: Sulfosulfuron 0.66 oz/Acre; for Wild Oat % Control 14 DAT: 14 days after treatment; for Wild Oat % Control 28 DAT: 28 days after treatment
Text: This invention pertains to the unexpected increase in activity seen when sulfosulfuron was applied with a cat-ionic surfactant plus a pH adjustor that increased the pH to a pH of 9-10.5 (Table 1). As opposed to the increase in activity that was predicted to happen when applied with an oil based or non-ionic surfactant with a pH adjustor as taught by Nalewaja et. al. This effect has been seen with both wild oat (Avena fatua) Table 1 and downy brome (Bromus tectorum) Table 2. The increase in activity has been seen with different formulation of tallow amine cat-ionic surfactant and a pH increasing additive (Table 3). [table]

[4] = adjuvant AQ117 (tallow amine plus aqua ammonia)
[5] = adjuvant R-11 (non-ionic surfactant)
[6] = adjuvant AQ103 (tallow amine plus aqua ammonia)
[7] = adjuvant AQ104 (tallow amine plus aqua ammonia)
[8] = adjuvant AQ118 (tallow amine plus aqua ammonia)
[9] = adjuvant Quad 7 (crop oil plus nitrogen fertilizer)

SMILES	Downy Brome % Control 21 DAT [1, 4] [%]	Downy Brome % Control 68 DAT [1, 4] [%]	Downy Brome % Control 21 DAT [1, 5] [%]	Downy Brome % Control 68 DAT [1, 5] [%]	Downy Brome % Control 17 DAT [2, 6] [%]	Downy Brome % Control 87 DAT [2, 6] [%]	Downy Brome % Control 17 DAT [2, 7] [%]	Downy Brome % Control 87 DAT [2, 7] [%]	Downy Brome % Control 17 DAT [2, 5] [%]	Downy Brome % Control 87 DAT [2, 5] [%]	Wild Oat % Control 14 DAT [3, 8] [%]	Wild Oat % Control 28 DAT [3, 8] [%]	Wild Oat % Control 14 DAT [3, 9] [%]	Wild Oat % Control 28 DAT [3, 9] [%]
CCCOc1nn(C(=O)[N-]S(=O)(=O)c2ccccc2C(=O)OC)c(=O)n1C.[Na+] [Propoxycarbazone, Propoxycarbazone-sodium]	73	90	52	67										
CCS(=O)(=O)c1nc2ccccn2c1S(=O)(=O)NC(=O)Nc1nc(OC)cc(OC)n1 [Sulfosulfuron]	78	97	52	62	30	92	30	90	5	77	75	98	48	62
